According to ChEMBL document CHEMBL1201862, “PubChem BioAssay data set” (2004):
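Grown in 96-well plates, cells were treated for 48 hours with each compound at five concentrations. Insufficient inhibition: endpoint recorded as highest concentration tested. At the GI50, growth is halved.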 Activity calls are given as the source filed them. No stated cut-off is given here; in the data, active = GI50 up to about 1.1 µM and inactive = higher.

Experiments:
Experiment in all cases: NCI-60 cell line screen, 48 h
786-0 = tested on: 786-0
ACHN = tested on: ACHN
COLO 205 = tested on: COLO 205
HL-60 = tested on: HL-60
HOP-62 = tested on: HOP-62
IGROV-1 = tested on: IGROV-1
KM12 = tested on: KM12
LOX IMVI = tested on: LOX IMVI
M14 = tested on: M14
M19-MEL = tested on: M19-MEL
NCI-H460 = tested on: NCI-H460
RPMI-8226 = tested on: RPMI-8226
SK-MEL-5 = tested on: SK-MEL-5
UO-31 = tested on: UO-31
OVCAR-8 = tested on: OVCAR-8
SK-MEL-28 = tested on: SK-MEL-28
SW-620 = tested on: SW-620
MCF7 = tested on: MCF7
T47D = tested on: T47D

Row | Compound | GI50 (786-0) | GI50 (ACHN) | GI50 (COLO 205) | GI50 (HL-60) | GI50 (HOP-62) | GI50 (IGROV-1) | GI50 (KM12) | GI50 (LOX IMVI) | GI50 (M14) | GI50 (M19-MEL) | GI50 (NCI-H460) | GI50 (RPMI-8226) | GI50 (SK-MEL-5) | GI50 (UO-31) | GI50 (OVCAR-8) | GI50 (SK-MEL-28) | GI50 (SW-620) | GI50 (MCF7) | GI50 (T47D)
1 | CC[n+]1c(/C=C/c2cc(C(=O)OC)n3c2sc2ccccc23)sc2ccccc21 | 19.1 µM (inactive) | 19.1 µM (inactive) | 22.9 µM (inactive) | 13.9 µM (inactive) | 0.434 µM (active) | 16.9 µM (inactive) | 14.7 µM (inactive) | 17.5 µM (inactive) | 18.8 µM (inactive) | 18.9 µM (inactive) | 16.2 µM (inactive) | > 10 µM (inactive) | 15 µM (inactive) | 17.5 µM (inactive) |  |  |  |  | 
2 | O=c1ccccc2cccc(O)c12 | > 100 µM (inactive) | > 100 µM (inactive) | > 100 µM (inactive) | > 100 µM (inactive) | > 100 µM (inactive) | > 100 µM (inactive) |  | > 100 µM (inactive) | > 100 µM (inactive) | > 100 µM (inactive) | > 100 µM (inactive) | > 100 µM (inactive) | > 100 µM (inactive) |  | > 100 µM (inactive) | > 100 µM (inactive) | > 100 µM (inactive) |  | 
3 | COc1cc(C2C(Cl)C(=O)N2NC(=O)c2ccc(N)cc2)ccc1O (stereo unspecified) | 19.1 µM (inactive) | > 100 µM (inactive) | 20.8 µM (inactive) | 27.9 µM (inactive) | 35.9 µM (inactive) | 56.8 µM (inactive) | 25.1 µM (inactive) | 14.8 µM (inactive) | 51.8 µM (inactive) | 55.5 µM (inactive) | 22.9 µM (inactive) | 78 µM (inactive) | 84.5 µM (inactive) | > 100 µM (inactive) | 21.5 µM (inactive) | 39.2 µM (inactive) | 17.2 µM (inactive) |  | 
4 | COC(=O)[C@]12CSCN1C(=O)C(C(C)=O)=NN2C(=O)[C@](OC)(c1ccccc1)C(F)(F)F | > 100 µM (inactive) | > 100 µM (inactive) | > 100 µM (inactive) | > 10 µM (inactive) | > 100 µM (inactive) | > 100 µM (inactive) | > 100 µM (inactive) | > 100 µM (inactive) | > 100 µM (inactive) | > 100 µM (inactive) | > 100 µM (inactive) | > 100 µM (inactive) | > 100 µM (inactive) | > 100 µM (inactive) | > 100 µM (inactive) | > 100 µM (inactive) | > 100 µM (inactive) |  | 
5 | CN1C(c2ccccc2)CC(O)CC1c1ccccc1 (stereo unspecified) | > 100 µM (inactive) | > 100 µM (inactive) | > 100 µM (inactive) | > 100 µM (inactive) | > 100 µM (inactive) | > 100 µM (inactive) | > 100 µM (inactive) | > 100 µM (inactive) | > 100 µM (inactive) | > 100 µM (inactive) | > 100 µM (inactive) | > 100 µM (inactive) | > 100 µM (inactive) | > 100 µM (inactive) | > 100 µM (inactive) | > 100 µM (inactive) | > 100 µM (inactive) |  | 
6 | N#Cc1cc([N+](=O)[O-])ccc1NC(=O)/C(=N/N)C(C(=O)c1ccc(Cl)c(Cl)c1)C1OC(=O)c2ccccc21 (stereo unspecified) | 59.3 µM (inactive) | 36.6 µM (inactive) | > 100 µM (inactive) |  | 54.6 µM (inactive) | > 100 µM (inactive) | 58.1 µM (inactive) | 21.7 µM (inactive) |  | 26.9 µM (inactive) | 35.8 µM (inactive) | 46.1 µM (inactive) | 63.7 µM (inactive) | 49.9 µM (inactive) | 28.1 µM (inactive) | 35.6 µM (inactive) | 95.7 µM (inactive) |  | 
7 | O=C(Nc1ccc(Cl)cc1)/C(Cc1cccc[n+]1[O-])=N\Nc1ccc([N+](=O)[O-])cc1[N+](=O)[O-] | > 100 µM (inactive) | > 100 µM (inactive) | > 100 µM (inactive) | > 100 µM (inactive) | > 100 µM (inactive) | > 100 µM (inactive) | > 100 µM (inactive) | > 100 µM (inactive) | > 100 µM (inactive) | > 100 µM (inactive) | > 100 µM (inactive) | > 100 µM (inactive) | > 100 µM (inactive) | > 100 µM (inactive) | > 100 µM (inactive) | > 100 µM (inactive) | > 100 µM (inactive) |  | 
8 | COc1ccc(OCC(=O)O)c2c1CCC(C)C2=O (stereo unspecified) | > 100 µM (inactive) | > 100 µM (inactive) | > 100 µM (inactive) | > 100 µM (inactive) | > 100 µM (inactive) | > 100 µM (inactive) | > 100 µM (inactive) | > 100 µM (inactive) | > 100 µM (inactive) | > 100 µM (inactive) | > 100 µM (inactive) | > 100 µM (inactive) | > 100 µM (inactive) | > 100 µM (inactive) | > 100 µM (inactive) | > 100 µM (inactive) | > 100 µM (inactive) |  | 
9 | CC(=O)OC(C)(C)C1CCC(C)(C(O)COc2ccc(CCNC(=O)c3ccccc3)cc2)O1 (stereo unspecified) | > 100 µM (inactive) | 54.1 µM (inactive) | > 100 µM (inactive) | 15.5 µM (inactive) | 43.2 µM (inactive) | > 100 µM (inactive) | 60.8 µM (inactive) | 31.4 µM (inactive) | 28.6 µM (inactive) | 37.3 µM (inactive) | 61.8 µM (inactive) | 20.7 µM (inactive) | 11.6 µM (inactive) | 33.7 µM (inactive) | 47.5 µM (inactive) | 79.8 µM (inactive) | > 100 µM (inactive) |  | 
10 | CN(C)c1ccc(/C=N/C23CC4CC(CC(C4)C2)C3)cc1 | > 100 µM (inactive) | > 100 µM (inactive) | > 100 µM (inactive) | > 100 µM (inactive) | > 100 µM (inactive) | > 100 µM (inactive) | > 100 µM (inactive) | > 100 µM (inactive) | > 100 µM (inactive) | > 100 µM (inactive) | > 100 µM (inactive) | > 100 µM (inactive) | > 10 µM (inactive) | > 100 µM (inactive) | > 100 µM (inactive) | > 100 µM (inactive) | > 100 µM (inactive) |  | 
11 | Cc1ccc(NC(=O)CC2C(=O)Nc3ccccc3S2(=O)=O)cc1C (stereo unspecified) | > 100 µM (inactive) | > 100 µM (inactive) |  | > 100 µM (inactive) |  | > 100 µM (inactive) |  | > 100 µM (inactive) | > 100 µM (inactive) | > 100 µM (inactive) | > 100 µM (inactive) | 62.8 µM (inactive) | > 100 µM (inactive) | > 100 µM (inactive) | > 100 µM (inactive) | > 100 µM (inactive) | > 100 µM (inactive) |  | 
12 | Cc1c(-c2nnc(-c3ccccc3)o2)c(=O)n(-c2ccccc2)n1C | > 100 µM (inactive) | > 100 µM (inactive) | > 100 µM (inactive) | > 100 µM (inactive) | > 100 µM (inactive) | > 100 µM (inactive) | > 100 µM (inactive) | > 100 µM (inactive) | > 100 µM (inactive) | > 100 µM (inactive) | > 100 µM (inactive) | > 100 µM (inactive) |  | > 100 µM (inactive) | > 100 µM (inactive) | > 100 µM (inactive) | > 100 µM (inactive) |  | 
13 | CN1C2(c3ccccc3)c3c(-c4ccccc4)sc(-c4ccccc4)c3C1(c1ccccc1)C1C(=O)N(c3ccccc3)C(=O)C12 (stereo unspecified) | > 100 µM (inactive) | > 100 µM (inactive) | > 100 µM (inactive) | > 100 µM (inactive) | > 100 µM (inactive) | > 100 µM (inactive) | > 100 µM (inactive) | > 100 µM (inactive) | > 100 µM (inactive) | > 100 µM (inactive) | > 100 µM (inactive) | > 100 µM (inactive) | > 100 µM (inactive) | > 100 µM (inactive) | > 100 µM (inactive) | > 100 µM (inactive) | > 100 µM (inactive) |  | 
14 | Cc1cc(N)c(C)c2c1[nH]c1ccc(O)cc12 | 91.8 µM (inactive) | > 100 µM (inactive) | 47.9 µM (inactive) | 79.3 µM (inactive) | > 100 µM (inactive) |  | > 100 µM (inactive) | > 100 µM (inactive) | > 100 µM (inactive) | 61 µM (inactive) | > 100 µM (inactive) | 48.4 µM (inactive) |  | > 100 µM (inactive) | 88.5 µM (inactive) | > 100 µM (inactive) | 39.1 µM (inactive) |  | 
15 | CN(C)/C=N\c1cc[nH]c(=O)n1 | > 100 µM (inactive) | > 100 µM (inactive) | > 100 µM (inactive) | > 100 µM (inactive) | > 100 µM (inactive) | > 100 µM (inactive) | > 100 µM (inactive) | > 100 µM (inactive) | > 100 µM (inactive) | > 100 µM (inactive) | > 100 µM (inactive) | > 100 µM (inactive) | > 100 µM (inactive) | > 100 µM (inactive) | > 100 µM (inactive) | > 100 µM (inactive) | > 100 µM (inactive) |  | 
16 | COc1cc([C@H]2c3cc4c(cc3O[C@@]3(O)COC(=O)[C@@H]23)OCO4)cc(OC)c1OC | > 100 µM (inactive) | > 100 µM (inactive) | > 100 µM (inactive) | > 100 µM (inactive) | > 100 µM (inactive) | > 100 µM (inactive) | > 100 µM (inactive) | > 100 µM (inactive) | > 100 µM (inactive) | > 100 µM (inactive) | > 100 µM (inactive) | > 100 µM (inactive) | > 100 µM (inactive) | > 100 µM (inactive) | > 100 µM (inactive) | > 100 µM (inactive) | > 100 µM (inactive) | > 100 µM (inactive) | > 100 µM (inactive)
